Consider eleven compounds from patent US20060058361A1, “Therapeutic diphenyl ether ligands” (Pfizer Inc, priority 2004, published 2006).

SMILES strings stand for the structures.

Broadly, the melting point is the temperature of the solid-liquid transition.

On to `CNCc1cc(C)c([S+](C)[O-])cc1Oc1ccc(Cl)c(C)c1C` (centres unmarked) [Example 19, [2-(4-Chloro-2,3-dimethylphenoxy)-4-methanesulfinyl-5-methylbenzyl]methylamine], for which the melting point fell in the range of 220 to 222 °C.

On to `CNC(C)c1cc(F)c(Cl)cc1Oc1ccc(Cl)cc1F` (centres unmarked) [Example 41, {1-[4-Chloro-2-(4-chloro-2-fluorophenoxy)-5-fluorophenyl]ethyl}-methylamine], for which the melting point was in the range of 178 to 180 °C.

Compound `CNCc1cc(C)c(Cl)cc1Oc1ccc(Cl)cc1F` [Example 43, [4-Chloro-2-(4-chloro-2-fluorophenoxy)-5-methylbenzyl]methylamine] had a melting point of 212 to 214 °C.

Compound `CNCc1cc(C)c(C)cc1Oc1ccc(Cl)cc1F` [Example 45, [2-(4-Chloro-2-fluorophenoxy)-4,5-dimethylbenzyl]methylamine] displayed a melting point of 134 to 136 °C.

Compound `CNCc1ccc(OC)cc1Oc1ccc(Cl)cc1F` [Example 46, [2-(4-Chloro-2-fluorophenoxy)-4-methoxy-benzyl]methylamine] had a melting point of 186 to 188 °C.

Take `CNCc1ccc(C)cc1Oc1ccc(Cl)cc1F` [Example 47, [2-(4-Chloro-2-fluorophenoxy)-4-methylbenzyl]methylamine]: the melting point lay in the range of 198 to 220 °C.

The compound `CNCc1ccc(Br)cc1Oc1ccc(Cl)cc1F` [Example 50, [4-Bromo-2-(4-chloro-2-fluorophenoxy)benzyl]methylamine] yielded a melting point of 204 to 206 °C.

Take `CNCc1cc(F)c(S(C)(=O)=O)cc1Oc1ccc(Cl)cc1F` [Example 52, [2-(4-Chloro-2-fluorophenoxy)-5-fluoro-4-methanesulfonylbenzyl]methylamine]: the melting point was 184 to 186 °C.

Compound `CNCc1ccc(Cl)cc1Oc1ccc(F)c2c1CCC2` [Example 57, [4-Chloro-2-(7-fluoroindan-4-yloxy)benzyl]methylamine] gave a melting point of 204 to 206 °C.

Consider `CNCc1ccc(S(C)(=O)=O)cc1Oc1ccc2c(c1)CCC2` [Example 58, [2-(Indan-5-yloxy)-4-methanesulfonylbenzyl]methylamine], for which the melting point fell in the range of 88 to 90 °C.

The compound `CCSc1ccc(CNC)c(Oc2ccc(Cl)cc2)c1` [Example 60, [2-(4-Chlorophenoxy)-4-ethylsulfanylbenzyl]methylamine] displayed a melting point of 158 to 160 °C.
